PubChem BioAssay (NCI)
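Growth conditions: 96-well plates. Treatment: test compound, 48 hours, 5 concentrations. Analysis: linear interpolation between bracketing concentrations; unreached endpoints set to highest concentration. The concentration for 50% growth inhibition is given as GI50. The concentration for full growth arrest is given as TGI.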

Assays:
Assay in all cases: NCI-60 cell line screen, 48 h
[1] = system: MCF7 breast
[2] = system: OVCAR-8 ovarian
[3] = system: SK-MEL-28 melanoma
[4] = system: A549 NSCLC
[5] = system: RPMI-8226 leukemia
[6] = system: SF-539 CNS
[7] = system: MDA-N
[8] = system: TK-10 renal
[9] = system: DU-145 prostate
[10] = system: SNB-75 CNS

Q: Which results are given for `CC[C@H]1C=CCC[C@@]2(C[C@@H]3CC[C@H]4[C@@H](C(=O)OCCCCCCCCCCCCCCCC(=O)N(CCCN)C[C@@H](O)CCN)[C@@]5(CCC[C@@H](C)O5)NC(=[N+]34)N2)O1`?
A: TGI [1]: 3.16 µM; TGI [2]: 4.93 µM; TGI [3]: 2.88 µM; TGI [4]: 3.35 µM; TGI [5]: 2.53 µM; TGI [6]: 2.78 µM; TGI [7]: 3.01 µM; TGI [8]: 3.04 µM; TGI [9]: 3.61 µM

Q: For `Nc1nc(N)c2cc(NCc3ccc(Cl)c(Cl)c3)ccc2n1`, which GI50 [1] is on record?
A: 1.36 µM

Q: What about the TGI [1] of the same molecule?
A: 2.75 µM

Q: What about the GI50 [3] of the same molecule?
A: 1.77 µM

Q: And the TGI [3]?
A: 3.15 µM

Q: What about the GI50 [4] of the same molecule?
A: 0.528 µM

Q: What about the TGI [4] of the same molecule?
A: 1.82 µM

Q: And the GI50 [6]?
A: 1.65 µM

Q: What about the TGI [6] of the same molecule?
A: 3.04 µM

Q: And the GI50 [10]?
A: 1.23 µM

Q: And the TGI [10]?
A: 2.48 µM

Q: And the GI50 [8]?
A: 1.59 µM

Q: And the TGI [8]?
A: 2.93 µM

Q: And the GI50 [9]?
A: 1.65 µM

Q: And the TGI [9]?
A: 3.01 µM

Q: Which TGI [1] does the source give for `N#Cc1c(-c2ccccc2)c(N=Nc2ccc(Cl)cc2)c(=O)n2c1[nH]c1ccccc12` here?
A: > 100 µM

Q: What about the TGI [2] of the same molecule?
A: > 100 µM

Q: What about the TGI [3] of the same molecule?
A: > 100 µM

Q: And the TGI [4]?
A: > 100 µM

Q: And the TGI [5]?
A: > 100 µM

Q: What about the TGI [6] of the same molecule?
A: > 100 µM

Q: And the TGI [10]?
A: > 100 µM

Q: What about the TGI [7] of the same molecule?
A: > 100 µM

Q: And the TGI [8]?
A: > 100 µM

Q: Which TGI [1] does the source give for `CN(C)C(=O)OC(Cn1cncn1)(Cn1cncn1)c1ccc(Cl)cc1Cl` here?
A: > 100 µM

Q: What about the TGI [2] of the same molecule?
A: > 100 µM

Q: And the TGI [3]?
A: > 100 µM

Q: And the TGI [4]?
A: > 100 µM

Q: What about the TGI [5] of the same molecule?
A: > 100 µM

Q: What about the TGI [6] of the same molecule?
A: > 100 µM

Q: What about the TGI [10] of the same molecule?
A: > 100 µM

Q: What about the TGI [8] of the same molecule?
A: > 100 µM

Q: What about the TGI [9] of the same molecule?
A: > 100 µM

Q: For `COC(C)(C)C1(O)CCC(C)CC1=O` (centres undefined), which TGI [2] is on record?
A: > 100 µM

Q: What about the TGI [3] of the same molecule?
A: > 100 µM

Q: And the TGI [4]?
A: > 100 µM

Q: And the TGI [5]?
A: > 100 µM

Q: What about the TGI [6] of the same molecule?
A: > 100 µM

Q: What about the TGI [10] of the same molecule?
A: > 100 µM

Q: What about the TGI [7] of the same molecule?
A: > 100 µM

Q: What about the TGI [8] of the same molecule?
A: > 100 µM

Q: What about the TGI [9] of the same molecule?
A: > 100 µM

Q: How did the TGI [1] turn out when `C=CCO[C@]1(CC=C)C(=O)C(=O)OC1C1COC(C)(C)O1` (some centres undefined) was run?
A: 42 µM

Q: And the TGI [2]?
A: 81.6 µM

Q: What about the TGI [4] of the same molecule?
A: > 100 µM

Q: What about the TGI [5] of the same molecule?
A: 73 µM

Q: What about the TGI [6] of the same molecule?
A: > 100 µM

Q: And the TGI [10]?
A: 77.2 µM

Q: What about the TGI [7] of the same molecule?
A: > 100 µM

Q: What about the TGI [9] of the same molecule?
A: > 100 µM

Q: How did the TGI [1] turn out when `C/C=C/C1OC(O)(C(C)C(O)[C@H](C)C2OC(=O)/C(OC)=C/C(C)=C/[C@@H](C)[C@@H](O)[C@@H](C)C(O)C(C)C/C(C)=C/C=C/C2OC)C[C@@H](OC2CC(O)C(OC(N)=O)C(C)O2)C1C` (some centres undefined) was run?
A: 7.65 µM

Q: And the TGI [2]?
A: 15.7 µM

Q: And the TGI [3]?
A: 3.18 µM

Q: What about the TGI [4] of the same molecule?
A: 13.3 µM

Q: What about the TGI [6] of the same molecule?
A: < 0.01 µM

Q: What about the TGI [10] of the same molecule?
A: 2.12 µM

Q: And the TGI [7]?
A: 1.11 µM

Q: What about the TGI [8] of the same molecule?
A: 1.78 µM

Q: What about the TGI [9] of the same molecule?
A: 16.2 µM

Q: What does the source list for `COC(=O)c1cnc(Cl)cn1`?
A: TGI [1]: 95.5 µM; TGI [2]: > 100 µM; TGI [3]: > 100 µM; TGI [4]: > 100 µM; TGI [5]: 59 µM; TGI [6]: > 100 µM; TGI [10]: > 100 µM; TGI [8]: > 100 µM; TGI [9]: > 100 µM

Q: For `COc1ccc(C2C3COc4ccccc4C3=NN2c2ccccc2)cc1` (centres undefined), which TGI [1] is on record?
A: > 100 µM

Q: What about the TGI [2] of the same molecule?
A: > 100 µM

Q: What about the TGI [4] of the same molecule?
A: > 100 µM

Q: And the TGI [5]?
A: > 100 µM

Q: What about the TGI [6] of the same molecule?
A: > 100 µM

Q: What about the TGI [10] of the same molecule?
A: > 100 µM

Q: And the TGI [7]?
A: > 100 µM

Q: And the TGI [8]?
A: > 100 µM

Q: Which TGI [1] does the source give for `Cc1ccc2oc(=O)c(C(=O)Nc3nc(C45CC6CC(CC(C6)C4)C5)cs3)cc2c1` here?
A: > 100 µM

Q: And the TGI [2]?
A: > 100 µM

Q: And the TGI [3]?
A: > 100 µM

Q: What about the TGI [4] of the same molecule?
A: > 100 µM

Q: What about the TGI [5] of the same molecule?
A: > 100 µM

Q: What about the TGI [6] of the same molecule?
A: > 100 µM

Q: What about the TGI [10] of the same molecule?
A: > 100 µM

Q: What about the TGI [7] of the same molecule?
A: > 100 µM

Q: And the TGI [9]?
A: > 100 µM

Q: Which TGI [1] does the source give for `CN(/N=C/c1ccnc2ccccc12)c1ccc(Cl)cc1[N+](=O)[O-]` here?
A: > 100 µM

Q: What about the TGI [2] of the same molecule?
A: > 100 µM

Q: What about the TGI [4] of the same molecule?
A: > 100 µM

Q: What about the TGI [6] of the same molecule?
A: > 100 µM

Q: And the TGI [10]?
A: > 100 µM

Q: What about the TGI [7] of the same molecule?
A: > 100 µM

Q: And the TGI [8]?
A: > 100 µM

Q: And the TGI [9]?
A: > 100 µM

Q: Which results are given for `CCOC(=O)CNc1nc(=O)c2c(=O)oc(Cl)cc2o1`?
A: TGI [2]: 23.2 µM; TGI [3]: 63.7 µM; TGI [4]: 40.6 µM; TGI [6]: 22 µM; TGI [10]: 24.7 µM; TGI [7]: 48 µM; TGI [8]: 28 µM; TGI [9]: > 100 µM

Q: What does the source list for `CCOC(=O)CC1(c2cccc3ccccc23)OC(=O)c2ccccc21` (centres undefined)?
A: TGI [2]: > 100 µM; TGI [3]: > 100 µM; TGI [4]: > 100 µM; TGI [5]: 64.2 µM; TGI [10]: 75.8 µM; TGI [8]: > 100 µM

Q: Which results are given for `CC1=NN(c2nc(N)nc(CC#N)n2)C(C)(C)C1`?
A: TGI [1]: > 100 µM; TGI [2]: > 100 µM; TGI [3]: > 100 µM; TGI [5]: > 100 µM; TGI [6]: > 100 µM; TGI [10]: > 100 µM; TGI [8]: > 100 µM; TGI [9]: > 100 µM

Q: How did the TGI [1] turn out when `O=c1[nH]nc(Cc2ccccc2)n1CCO` was run?
A: > 100 µM

Q: What about the TGI [2] of the same molecule?
A: > 100 µM

Q: And the TGI [3]?
A: > 100 µM

Q: And the TGI [4]?
A: > 100 µM

Q: And the TGI [5]?
A: > 100 µM

Q: And the TGI [6]?
A: > 100 µM

Q: And the TGI [7]?
A: > 100 µM

Q: What about the TGI [8] of the same molecule?
A: > 100 µM

Q: And the TGI [9]?
A: > 100 µM

Q: With `C=C1C(=O)O[C@H]2[C@@H](O)[C@H](C)CCC[C@]3(C)O[C@H]3CC[C@@]3(C)O[C@@H]3C[C@@H]12` as the molecule, how does the TGI [1] read?
A: 7.87 µM

Q: What about the TGI [2] of the same molecule?
A: 13.4 µM

Q: What about the TGI [3] of the same molecule?
A: 8.91 µM

Q: What about the TGI [4] of the same molecule?
A: 18.3 µM

Q: And the TGI [5]?
A: 50 µM

Q: And the TGI [6]?
A: 13.3 µM

Q: And the TGI [10]?
A: 15.2 µM

Q: And the TGI [9]?
A: 12.9 µM

Q: `Cc1ccc2nc(-c3ccc(N4C(=O)C(Cl)C4c4ccc(Cl)cc4)cc3)sc2c1` (centres undefined) was tested. Which TGI [1] did it give?
A: 32.7 µM

Q: And the TGI [2]?
A: 81.1 µM

Q: And the TGI [3]?
A: 31.5 µM

Q: What about the TGI [4] of the same molecule?
A: 36.9 µM

Q: And the TGI [5]?
A: 38.6 µM

Q: What about the TGI [6] of the same molecule?
A: 35.3 µM

Q: What about the TGI [7] of the same molecule?
A: 40.9 µM

Q: What about the TGI [8] of the same molecule?
A: 38.1 µM

Q: What about the TGI [9] of the same molecule?
A: > 100 µM
